Results on 14 compounds are retold here after patent US5726177A, “Indole-derived arylpiperazines as ligands for 5HT1 -like, 5HT1B and 5HT1D receptors” (Pierre Fabre Medicament, priority 1993, dated 1998).

The target in one assay is human 5HT1Da receptor (Homo sapiens, UniProt P28221). Kind of assay: Binding to cloned human 5HT1Da receptor. As to conditions: human cloned receptor; [3H] ligand 2 nM; read-out: Ki 5HT1Da. How it is done:
(§1) Human 5HT1Da and 5HT1Db receptors were cloned according to the sequences published by M. Hamblin and M. Metcalf, Mol. Pharmacol., 40, 143 (1991) and Weinshenk et al., Proc. Natl. Acad. Sci., 89, 3630 (1992).
(§2) The transient transfection and the stable transfection of the genes of these receptors was carried out in Cos-7 and CHO-K1 cell lines by using an electroporator.
(§3) The binding of the derivatives of the present invention with human 5HT1Da, 5HT1Db and 5HT1A receptors was studied according to the method described by P. Pauwels and C. Palmier (Neuropharmacology, 33, 67, 1994).
(§4) The incubation media for these binding measurements comprise 0.4 ml of cell membrane preparation, 0.05 ml of a tritiated ligand [[3H]-SCT (final concentration: 2 nM) for the 5HT1Da and 5HT1Db receptors and [3H]-80H-DPAT (final concentration: 1 nM) for the 5HT1A receptor] and 0.05 ml of the molecule to be tested (final concentrations from 0.1 nM to 1000 nM) or 10 μM (final concentration) of serotonin (5HT1Da and 5HT1Db) or 1 μM (final concentration) of spiroxatrin (5HT1A ).

The next assay concerns the target T1, 5-HT1B receptor (Didelphis virginiana, UniProt P35404).
T1 construct: mediated by a 5-HT1B receptor, in an OK kidney epithelial cell line; endogenous in cells; host or cells: OK kidney epithelial cell line
Description: Agonist activity: inhibition of forskolin-stimulated cAMP formation mediated by a 5-HT1B receptor in OK kidney epithelial cell line. The format is cell-based. How it is done: STUDY OF THE AGONIST ACTIVITY WITH RESPECT TO THE 5-HT1B RECEPTORS
The measurements were carried out with respect to the inhibition of the formation of cAMP stimulated by forskolin, mediated by a 5-HT1B receptor, in an OK kidney epithelial cell line as described elsewhere (P. J. Pauwels and C. Palmier, Neuropharmacology, awaiting publication).

The target in assay [1] is T2, human 5HT1Db receptor (Homo sapiens, UniProt P28222). Description: cell-based. As to conditions: human 5HT1Db; CHO-K1 cells; read-out: EC50 (Inhibition of the 5HT1Db cyclase stimulated by forskolin). The protocol:
as §1, §2
The inhibition of the formation of cyclic AMP (stimulated by forskolin) mediated by the human 5HT1Db receptor was studied in CHO-K1 cells transfected by the receptor according to the technique described previously for the 5HT1B receptor (P. Pauwels and C. Palmier, Neuropharmacology, 33, 67, 1994).

The target of assay [2] is T2, human 5HT1Db receptor. Description: Binding to cloned human 5HT1Db receptor. As to conditions: human cloned receptor; [3H] ligand 2 nM; read-out: Ki 5HT1Db. How it is done:
as §1, §2, §3, §4

Another assay has as its system 5-HT1D receptors. Description: Affinity for 5-HT1D receptors (3H-5HT binding, sheep caudate membranes). Conditions: for Ratio 1A/1D (ratio of the IC50 values for the 5HT1A and 5HT1D receptors): selectivity 5-HT1D over 5-HT1A; for pIC50: sheep caudate nuclei membranes, 3H-5HT, 25° C., 30 min. How it is done: STUDY OF THE AFFINITY FOR 5-HT1D RECEPTORS
This study is carried out according to the technique described by Pauwells et al. (Biochem. Pharmacol, 46, 535-538, 1993).
Preparation of the membranes
Sheep brains are removed in the local abattoir and transported in ice. The caudate nuclei are removed, weighed and homogenized with a Polytron for 20 sec (speed 6-7) in 20 volumes of Tris-HCl 50 mM, pH 7.7. The homogenate is centrifuged for 10 min at 48,000 g with an L5 50E centrifuge (Beckman).
The pellet, taken up in 20 volumes of Tris-HCl 50 mm, pH 7.7, is placed in a water bath at 37° C. for 10 min and then recentrifuged for 10 min at 48,000 g. The pellet then obtained is immediately frozen in fractions containing 0.5g of tissue.
The pellet is defrosted and homogenized with a Dounce in 80 volumes of Tris-HCl 50 mM, pH 7.7, containing 4 mM CaCl2, 10 μM of pargyline and 0.1% of ascorbic acid.
Affinity is produced at 25° C. by incubating for 30 min:
0.1 ml of buffer or 10 μM, as final concentration, of sumatriptan, in order to obtain the non-specific binding
0.1 ml of 3H-5HT (15 to 30 Ci:mM, New England Nuclear France).
The incubation is brought to an end by rapid filtration through GF/B filters and rinsing with 3 times 3 [illegible] ice-cold buffer, using a harvester manufactured by Brandel which makes it possible [illegible] to filter [illegible]samples. The filters are introduced into vials containing [illegible]ml of [illegible] [illegible] scintillant (Packard) and the radioactivity measured with a Tri-carb 4640 counter (Packard). The IC50 (concentration which inhibits the specific affinity by 50%) is determined graphically.

The target in the next assay is T3, 5-HT1A (Rattus norvegicus, UniProt P19327).
T3 construct: from tissue; host or cells: rat frontal cortex (from the title of the cited method)
T3 sequence (P19327 1-422): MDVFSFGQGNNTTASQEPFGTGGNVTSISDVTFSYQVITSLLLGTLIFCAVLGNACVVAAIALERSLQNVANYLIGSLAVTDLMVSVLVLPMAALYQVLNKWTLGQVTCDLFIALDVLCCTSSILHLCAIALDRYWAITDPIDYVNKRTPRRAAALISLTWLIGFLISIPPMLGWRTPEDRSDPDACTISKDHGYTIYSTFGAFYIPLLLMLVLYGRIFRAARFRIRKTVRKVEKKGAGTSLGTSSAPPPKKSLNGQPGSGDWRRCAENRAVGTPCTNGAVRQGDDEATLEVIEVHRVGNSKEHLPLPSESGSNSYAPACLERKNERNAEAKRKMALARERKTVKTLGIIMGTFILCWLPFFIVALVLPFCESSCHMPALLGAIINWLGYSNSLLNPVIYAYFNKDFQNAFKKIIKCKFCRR
Kind of assay: Affinity for 5-HT1A receptors (method of Peroutka). The format is binding. The protocol:
The affinities of the various products which form part of this invention for 5HT1A and 5HT1B receptors were measured according to the techniques described in:
Peroutka S. J. Pharmacological differentiation and characterization of 5HT1A, 5HT1B and 5HT1C binding sites in rat frontal cortex. J. Neurochem., 45, 529-540, 1986.

[3] abbreviates: rat frontal cortex (Peroutka method), read-out: IC50 5-HT1A mean.

pEC50, pIC50, pKi: −log10 of the molar value. Structures can show the parent of a compound that is named as a salt. Where two headings read alike, the source gives them in different places.

T2 sequence (P28222 whole entry): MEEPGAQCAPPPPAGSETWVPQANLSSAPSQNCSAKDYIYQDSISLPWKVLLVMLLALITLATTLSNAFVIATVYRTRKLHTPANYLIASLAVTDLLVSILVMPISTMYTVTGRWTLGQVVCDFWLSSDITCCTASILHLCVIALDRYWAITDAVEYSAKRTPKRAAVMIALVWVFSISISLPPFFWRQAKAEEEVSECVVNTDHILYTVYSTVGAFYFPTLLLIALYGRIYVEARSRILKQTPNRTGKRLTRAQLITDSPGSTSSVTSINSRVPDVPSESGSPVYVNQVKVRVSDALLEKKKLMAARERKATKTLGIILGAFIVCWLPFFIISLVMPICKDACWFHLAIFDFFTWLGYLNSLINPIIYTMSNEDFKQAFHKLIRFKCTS
Chain of human 5HT1Da receptor (P28221 whole entry): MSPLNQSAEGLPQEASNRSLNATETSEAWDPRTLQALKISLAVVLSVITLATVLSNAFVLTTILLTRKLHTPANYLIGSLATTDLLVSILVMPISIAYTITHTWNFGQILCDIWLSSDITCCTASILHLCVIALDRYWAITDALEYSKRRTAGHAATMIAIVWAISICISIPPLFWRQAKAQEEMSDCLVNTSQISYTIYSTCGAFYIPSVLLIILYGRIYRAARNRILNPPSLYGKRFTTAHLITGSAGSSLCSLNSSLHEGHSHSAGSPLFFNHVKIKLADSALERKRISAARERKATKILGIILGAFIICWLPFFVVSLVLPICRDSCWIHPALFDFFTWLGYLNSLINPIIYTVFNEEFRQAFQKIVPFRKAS
T1 sequence (P35404 whole entry): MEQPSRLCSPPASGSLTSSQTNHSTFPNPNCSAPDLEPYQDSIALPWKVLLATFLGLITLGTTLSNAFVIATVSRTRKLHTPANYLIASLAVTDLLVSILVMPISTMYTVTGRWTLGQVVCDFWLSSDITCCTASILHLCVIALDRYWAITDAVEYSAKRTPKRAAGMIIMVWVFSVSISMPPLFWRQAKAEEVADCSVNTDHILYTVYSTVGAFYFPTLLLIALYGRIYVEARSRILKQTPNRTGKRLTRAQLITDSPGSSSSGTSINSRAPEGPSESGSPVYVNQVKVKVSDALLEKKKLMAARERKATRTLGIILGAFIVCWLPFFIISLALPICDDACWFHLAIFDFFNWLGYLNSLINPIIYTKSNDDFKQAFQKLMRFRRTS

In general, pKi refers to the negative decadic logarithm of the Ki, by convention in mol/L. One may read the pEC50 as −log10 of the EC50, conventionally taken in molar units. For the compound `NCCc1c[nH]c2ccc(OCC(=O)N3CCN(c4ccc([N+](=O)[O-])cc4)CC3)cc12` [Example 1, 2-[3-(2-Aminoethyl)-1H-indol-5-yloxy]-1-[4-(4-nitrophenyl)piperazin-1-yl]ethanone hydrochloride], the pKi at human 5HT1Da receptor was 9.30; at human 5HT1Db receptor [2], 9.00. Further, the pEC50 on 5-HT1B receptor is 8.92 to 9.52; at human 5HT1Db receptor [1], 8.92.
`NCCc1c[nH]c2ccc(OCC(=O)N3CCN(c4ccc(N)cc4)CC3)cc12` [Example 2, 2-[3-(2-Aminoethyl)-1H-indol-5-yloxy]-1-[4-(4-aminophenyl)piperazin-1-yl]ethanone hydrochloride] had a pEC50 at 5-HT1B receptor of 8.92 to 9.52.
With `CC(=O)Nc1ccc(N2CCN(C(=O)COc3ccc4[nH]cc(CCN)c4c3)CC2)cc1` [Example 3, N-[4-(4-{2-[3-(2-Aminoethyl)-1H-indol-5-yloxy]acetyl}piperazin-1-yl)phenyl]acetamide hydrochloride], at 5-HT1B receptor, the pEC50 was 8.92 to 9.52.
The pIC50 is the negative decadic logarithm of the IC50, by convention in mol/L. In the case of `NCCc1c[nH]c2ccc(OCC(=O)N3CCN(c4ccc(NC(=O)c5ccccc5)cc4)CC3)cc12` [Example 4, N-[4-(4-{2-[3-(2-Aminoethyl)-1H-indol-5-yloxy]acetyl}piperazin-1-yl)phenyl]benzamide hydrochloride], the “Ratio 1A/1D (ratio of the IC50 values for the 5HT1A and 5HT1D receptors)” value (from here on “Ratio 1A/1D”) in the assay on 5-HT1D receptors came to 75. Further, the pIC50 at 5-HT1D receptors was 9.00; at 5-HT1A (setting [3]), 7.12.
As to `CS(=O)(=O)Nc1ccc(N2CCN(C(=O)COc3ccc4[nH]cc(CCN)c4c3)CC2)cc1` [Example 5, N-[4-(4-{2-[3-(2-Aminoethyl)-1H-indol-5-yloxy]acetyl}piperazin-1-yl)phenyl]methanesulfonamide hydrochloride], the figures for the pKi at human 5HT1Da receptor and at human 5HT1Db receptor [2] were 9.15 and 8.49, respectively. In addition, the pEC50 at human 5HT1Db receptor [1] is 8.19.
With `CS(=O)(=O)N(c1ccc(N2CCN(C(=O)COc3ccc4[nH]cc(CCN)c4c3)CC2)cc1)S(C)(=O)=O` [Example 6, N-[4-(4-{2-[3-(2-Aminoethyl)-1H-indol-5-yloxy]acetyl}piperazin-1-yl)phenyl](methanesulfonyl)methanesulfonamide hydrochloride], in the assay with 5-HT1D receptors, the “Ratio 1A/1D” value came to 18; the pIC50 was 8.37. Further, at 5-HT1A (setting [3]), the pIC50 is 7.10.
The matching figures for `CCS(=O)(=O)Nc1ccc(N2CCN(C(=O)COc3ccc4[nH]cc(CCN)c4c3)CC2)cc1` [Example 7, N-[4-(4-{2-[3-(2-Aminoethyl)-1H-indol-5-yloxy]acetyl}piperazin-1-yl)phenyl]ethanesulfonamide hydrochloride]: 28, 8.80 and 7.36.
The like results for `NCCc1c[nH]c2ccc(OCC(=O)N3CCN(c4ccc(NS(=O)(=O)c5cccs5)cc4)CC3)cc12` [Example 8, Thiophene-2-{N-[4-(4-{2-[3-(2-aminoethyl)-1H-indol-5-yloxy]acetyl}piperazin-1-yl)phenyl]sulfonamide hydrochloride] were, in that order, 22, 8.92 and 7.59.
Take `NCCc1c[nH]c2ccc(OCC(=O)N3CCN(c4ccc(N(S(=O)(=O)c5cccs5)S(=O)(=O)c5cccs5)cc4)CC3)cc12` [Example 9, N-[4-(4-{2-[3-(2-Aminoethyl)-1H-indol-5-yl-oxy]acetyl}piperazin-1-yl)phenyl](thiophene-2-sulfonyl)-thiophene-2-sulfonamide hydrochloride]: at 5-HT1A (setting [3]), the pIC50 was 7.42.
As for `Cc1noc(C)c1S(=O)(=O)Nc1ccc(N2CCN(C(=O)COc3ccc4[nH]cc(CCN)c4c3)CC2)cc1` [Example 10, 3,5-Dimethylisoxazole-4-{N-[4-(4-{2-[3-(2-aminoethyl)-1H-indol-5-yloxy]acetyl}-piperazin-1-yl)phenyl]sulfonamide hydrochloride], in the assay on 5-HT1D receptors, the “Ratio 1A/1D” value turned out to be 20; the pIC50 is 9.00. Besides, the pIC50 on 5-HT1A (setting [3]) was 7.70.
Turning to `CCOC(=O)Nc1ccc(N2CCN(C(=O)COc3ccc4[nH]cc(CCN)c4c3)CC2)cc1` [Example 11, 2-[3-(2-Aminoethyl)-1H-indol-5-yloxy]-1-[4-(4-N-{ethoxycarbonyl}aminophenyl)piperazin-1-yl]-ethanone hydrochloride], in the assay with 5-HT1D receptors, the “Ratio 1A/1D” value stood at 44; the pIC50 is 8.62. The pIC50 at 5-HT1A (setting [3]) was 6.98.
Consider `NCCc1c[nH]c2ccc(OCC(=O)N3CCN(c4ccccc4[N+](=O)[O-])CC3)cc12` [Example 14, 2-[3-(2-Aminoethyl)-1H-indol-5-yloxy]-1-[4-(2-nitrophenyl)piperazin-1-yl)ethanone hydrochloride], for which, in the assay with 5-HT1D receptors, the “Ratio 1A/1D” value turned out to be 10; the pIC50 is 9.00. The compound further showed a pIC50 on 5-HT1A of 8.02.
Turning to `CS(=O)(=O)Nc1ccc(N2CCN(C(=O)CCCCCOc3ccc4[nH]cc(CCN)c4c3)CC2)cc1` [Example 59, N-[4-(4-{6-[3-(2-Aminoethyl)-1H-indol-5-yloxy]hexanoyl}piperazin-1-yl)phenyl]methane sulfonamide hydrochloride], the pKi at human 5HT1Da receptor and at human 5HT1Db receptor [2] was 8.89 in each case. Also, the pEC50 on human 5HT1Db receptor [1] is 9.28.
Take `NCCc1c[nH]c2ccc(O)cc12` [serotonin, reference compound]: the “blocking the formation of cAMP (in words)” value at 5-HT1B receptor (OK kidney epithelial cell line, forskolin-stimulated) was “capable of effectively blocking the formation of cAMP”.
